Measurements published in patent publication US11963995B2, “Methods comprising desmopressin” (Ferring B.V., priority 2008, dated 2024).

Test system: adult patients with nocturia
Assay: Change in urine volume (nocturnal, total) from baseline to Day 28 (Part I)
Type: in vivo, human
Details: for median decrease of nocturnal urine volume compared to baseline before treatment: Day 28; for Change from baseline to final visit (Day 28) of nocturnal urine volume, mean / Change from baseline to final visit (Day 28) of nocturnal urine volume, median: ITT, Part I
Description: As used herein, the term “nocturnal urine” refers to the total urine volume from 5 minutes after bedtime until rising in the morning, including the first void within 30 minutes of rising.
All treatments were administered orally once per night approximately 1 hour prior to bedtime; subjects were instructed to limit their fluid intake prior to drug self-administration. […] Randomization was to be stratified by age (<65, ≥65 years) and by the absence/presence of nocturnal polyuria, defined as a ratio of nighttime urine volume/24-hour urine volume 33%. To achieve the desired number of subjects within each stratum, enrollment of subjects in a particular stratum (age and/or presence/absence of nocturnal polyuria) could be halted. If this was necessary, all investigative sites were to be informed in writing at least 1 week in advance to stop screening in a population of subjects.
Changes in urine volume from baseline to the end of Day 28 were also assessed and included herein.
Missing values concerning number of nocturnal voids at Day 8, Day 15, Day 22, and Day 28 in Part I were imputed using last observation carried forward (LOCF). Missing values concerning sleep disturbance and urine volume (for average 24-hour urine volume and average nocturnal urine volume) were not imputed.

[1] = 10 ug, females over 50 years of age
[2] = 25 ug, females over 50 years of age
[3] = 50 ug, females over 50 years of age
[4] = 100 ug, females over 50 years of age
[5] = all males with monitoring, 10 ug dose
[6] = all males with monitoring, 25 ug dose
[7] = all males with monitoring, 50 ug dose
[8] = all males with monitoring, 100 ug dose
[9] = females over 65 years of age, 10 ug dose
[10] = females over 65 years of age, 25 ug dose
[11] = females over 65 years of age, 50 ug dose
[12] = females over 65 years of age, 100 ug dose

NC(=O)CC[C@@H]1NC(=O)[C@H](Cc2ccccc2)NC(=O)[C@H](Cc2ccc(O)cc2)NC(=O)CCSSC[C@@H](C(=O)N2CCC[C@H]2C(=O)N[C@H](CCCN=C(N)N)C(=O)NCC(N)=O)NC(=O)[C@H](CC(N)=O)NC1=O [desmopressin]
median decrease of nocturnal urine volume compared to baseline before treatment (10 μg, all females): 179 mL
Change from baseline to final visit (Day 28) of nocturnal urine volume, mean (10 ug, all females): -207 mL
Change from baseline to final visit (Day 28) of nocturnal urine volume, median (10 ug, all females): -179 mL
median decrease of nocturnal urine volume compared to baseline before treatment (10 μg, all groups): 150 mL
Change from baseline to final visit (Day 28) of nocturnal urine volume, mean (10 ug, all groups): -164 mL
Change from baseline to final visit (Day 28) of nocturnal urine volume, median (10 ug, all groups): -150 mL
median decrease of nocturnal urine volume compared to baseline before treatment (10 μg, females over 50 years of age): 150 mL
Change from baseline to final visit (Day 28) of nocturnal urine volume, mean [1]: -197 mL
Change from baseline to final visit (Day 28) of nocturnal urine volume, median [1]: -150 mL
median decrease of nocturnal urine volume compared to baseline before treatment (25 μg, all females): 298 mL
Change from baseline to final visit (Day 28) of nocturnal urine volume, mean (25 ug, all females): -307 mL
Change from baseline to final visit (Day 28) of nocturnal urine volume, median (25 ug, all females): -298 mL
Change from baseline to final visit (Day 28) of nocturnal urine volume, mean (25 ug, all groups): -224 mL
Change from baseline to final visit (Day 28) of nocturnal urine volume, median (25 ug, all groups): -233 mL
median decrease of nocturnal urine volume compared to baseline before treatment (25 μg, females over 50 years of age): 383 mL
Change from baseline to final visit (Day 28) of nocturnal urine volume, mean [2]: -356 mL
Change from baseline to final visit (Day 28) of nocturnal urine volume, median [2]: -383 mL
median decrease of nocturnal urine volume compared to baseline before treatment (25 μg, females over 65 years of age): 383 mL
Change from baseline to final visit (Day 28) of nocturnal urine volume, mean (50 ug, all females): -257 mL
Change from baseline to final visit (Day 28) of nocturnal urine volume, median (50 ug, all females): -204 mL
Change from baseline to final visit (Day 28) of nocturnal urine volume, mean (50 ug, all groups): -272 mL
Change from baseline to final visit (Day 28) of nocturnal urine volume, median (50 ug, all groups): -233 mL
Change from baseline to final visit (Day 28) of nocturnal urine volume, mean [3]: -249 mL
Change from baseline to final visit (Day 28) of nocturnal urine volume, median [3]: -196 mL
Change from baseline to final visit (Day 28) of nocturnal urine volume, mean (100 ug, all females): -321 mL
Change from baseline to final visit (Day 28) of nocturnal urine volume, median (100 ug, all females): -283 mL
Change from baseline to final visit (Day 28) of nocturnal urine volume, mean (100 ug, all groups): -312 mL
Change from baseline to final visit (Day 28) of nocturnal urine volume, median (100 ug, all groups): -283 mL
Change from baseline to final visit (Day 28) of nocturnal urine volume, mean [4]: -317 mL
Change from baseline to final visit (Day 28) of nocturnal urine volume, median [4]: -275 mL
median decrease of nocturnal urine volume compared to baseline before treatment (100 μg, males with monitoring): 264 mL
Change from baseline to final visit (Day 28) of nocturnal urine volume, mean [5]: -122 mL
Change from baseline to final visit (Day 28) of nocturnal urine volume, median [5]: -83 mL
Change from baseline to final visit (Day 28) of nocturnal urine volume, mean [6]: -146 mL
Change from baseline to final visit (Day 28) of nocturnal urine volume, median [6]: -167 mL
Change from baseline to final visit (Day 28) of nocturnal urine volume, mean [7]: -286 mL
Change from baseline to final visit (Day 28) of nocturnal urine volume, median [7]: -235 mL
Change from baseline to final visit (Day 28) of nocturnal urine volume, mean [8]: -296 mL
Change from baseline to final visit (Day 28) of nocturnal urine volume, median [8]: -264 mL
Change from baseline to final visit (Day 28) of nocturnal urine volume, mean (all males, 10 ug dose): -125 mL
Change from baseline to final visit (Day 28) of nocturnal urine volume, median (all males, 10 ug dose): -117 mL
Change from baseline to final visit (Day 28) of nocturnal urine volume, mean (all males, 25 ug dose): -162 mL
Change from baseline to final visit (Day 28) of nocturnal urine volume, median (all males, 25 ug dose): -200 mL
Change from baseline to final visit (Day 28) of nocturnal urine volume, mean (all males, 50 ug dose): -286 mL
Change from baseline to final visit (Day 28) of nocturnal urine volume, median (all males, 50 ug dose): -246 mL
Change from baseline to final visit (Day 28) of nocturnal urine volume, mean (all males, 100 ug dose): -306 mL
Change from baseline to final visit (Day 28) of nocturnal urine volume, median (all males, 100 ug dose): -270 mL
Change from baseline to final visit (Day 28) of nocturnal urine volume, mean [9]: -91 mL
Change from baseline to final visit (Day 28) of nocturnal urine volume, median [9]: -54 mL
Change from baseline to final visit (Day 28) of nocturnal urine volume, mean [10]: -372 mL
Change from baseline to final visit (Day 28) of nocturnal urine volume, median [10]: -383 mL
Change from baseline to final visit (Day 28) of nocturnal urine volume, mean [11]: -208 mL
Change from baseline to final visit (Day 28) of nocturnal urine volume, median [11]: -203 mL
Change from baseline to final visit (Day 28) of nocturnal urine volume, mean [12]: -323 mL
Change from baseline to final visit (Day 28) of nocturnal urine volume, median [12]: -285 mL
